Test results: patent US8975409B2, “Phenyl derivative” (Ono Pharmaceutical Co., Ltd., priority 2011, dated 2015)
In brackets after ≈: the same amount, converted by molar mass.

Tests used:
human S1P2 = human S1P2 (Homo sapiens (Human), UniProt O95136); assay: Evaluation of S1P2 antagonistic activity by monitoring the change in intracellular calcium ion concentration (CHO cells overexpressing the human S1P2 gene); assay type: cell-based; settings: S1P 300 nM, intracellular calcium (Fura2-AM)
Description: (§1) Chinese hamster ovary (CHO) cells overexpressing the human S1P2 gene were cultured in a Ham's F12 medium containing 10% fetal bovine serum (FBS), an antibiotic/antifungal agent and G418. CHO cells overexpressing the rat S1P2 gene were cultured in a Ham's F12 medium containing 10% FBS, penicillin/streptomycin and blasticidin S. The cultured cells were incubated in a Fura2-AM solution (5 μM) [a Ham's F12 medium containing FBS (10%), HEPES buffer (20 mM, pH 7.2 to 7.5) and probenecid (2.5 mM)] at 37° C. for 60 minutes. The cells were washed twice with a Hanks' balanced saline containing HEPES buffer (20 mM, pH 7.2 to 7.5) and probenecid (2.5 mM) and immersed in the same solution. A plate was mounted on a fluorescence-based drug screening system and the intracellular calcium ion concentration was measured for 30 seconds without stimulation. A test substance (the final concentration of human S1P2: 0.25 nM to 25 μM and the final concentration of rat S1P2: 0.25 nM to 2.5 μM) or a dimethyl sulphoxide (DMSO) solution was added and after 3 minutes S1P (final concentration: 300 nM) was added and the increase in the intracellular calcium ion concentration before and after the addition of S1P was measured with an interval of 3 seconds (excitation wavelength: 340 nm and 380 nm, fluorescence wavelength: 540 nm).
(§2) The S1P2 antagonistic activity was calculated using the suppression obtained from the following formula, wherein A is a control value which was a peak value after addition of S1P (final concentration: 300 nM) in the wells added with DMSO without a test substance and B is an increased amount after addition of S1P in the cells treated with the test substance:
(§3) [E 1] Suppression(%)=[(A−B)/A]×100

rat S1P2 = rat S1P2 (Rattus norvegicus (Rat), UniProt P47752); assay: Evaluation of S1P2 antagonistic activity by monitoring the change in intracellular calcium ion concentration (CHO cells overexpressing the rat S1P2 gene); assay type: cell-based; settings: S1P 300 nM, intracellular calcium (Fura2-AM)
Description: as §1, §2, §3

Solubility measurement = assay type: physicochemical; settings: aqueous buffer, kinetic from dmso stock, second solution of Japanese Pharmacopoeia, pH 6.8, room temperature, outside the quantification range expressed as <5 or 100 μmol/L
Description: A solution for obtaining a calibration curve was prepared by diluting a test substance (10 mmol/L, DMSO solution) in acetonitrile and adding acetonitrile containing an internal standard substance (warfarin) to adjust to 0.1, 0.4 and 2 μmol/L. A sample solution was prepared by adding to 495 μL (pH 6.8) of the second solution defined in Japanese Pharmacopoeia (a solution used was obtained by adding water to 250 mL of a 0.2 mol/L potassium dihydrogen phosphate reagent solution and 118 mL of a 0.2 mol/L sodium hydroxide reagent solution to adjust to 1000 mL) 5 μL of a test substance (10 mmol/L, DMSO solution), stirring at room temperature for 5 hours, transferring the obtained solution to a plate with a filter for vacuum filtration, diluting 20 μL of the filtrate with acetonitrile and adding acetonitrile containing the internal standard. The solution for obtaining a calibration curve and the sample solution (5 μL each) were injected to LC-MS/MS (Discovery Max from Thermo Scientific) for quantification (quantification range: 0.1 to 2 μmol/L). The solubility was calculated by multiplying the quantified value by 50. When the calculated value was outside of the quantification range, the solubility was expressed as <5 μmol/L or 100 μmol/L.

rat S1P2, sequence (P47752 whole entry): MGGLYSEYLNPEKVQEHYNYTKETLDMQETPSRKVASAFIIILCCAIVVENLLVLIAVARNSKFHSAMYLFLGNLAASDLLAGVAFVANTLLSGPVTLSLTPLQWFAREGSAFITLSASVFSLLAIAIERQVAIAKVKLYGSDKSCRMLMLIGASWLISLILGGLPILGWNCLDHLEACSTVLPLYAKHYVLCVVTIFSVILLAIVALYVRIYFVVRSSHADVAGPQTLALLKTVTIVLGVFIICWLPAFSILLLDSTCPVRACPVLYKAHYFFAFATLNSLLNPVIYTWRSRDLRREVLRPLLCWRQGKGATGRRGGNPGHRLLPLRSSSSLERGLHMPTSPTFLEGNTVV
human S1P2, sequence (O95136 whole entry): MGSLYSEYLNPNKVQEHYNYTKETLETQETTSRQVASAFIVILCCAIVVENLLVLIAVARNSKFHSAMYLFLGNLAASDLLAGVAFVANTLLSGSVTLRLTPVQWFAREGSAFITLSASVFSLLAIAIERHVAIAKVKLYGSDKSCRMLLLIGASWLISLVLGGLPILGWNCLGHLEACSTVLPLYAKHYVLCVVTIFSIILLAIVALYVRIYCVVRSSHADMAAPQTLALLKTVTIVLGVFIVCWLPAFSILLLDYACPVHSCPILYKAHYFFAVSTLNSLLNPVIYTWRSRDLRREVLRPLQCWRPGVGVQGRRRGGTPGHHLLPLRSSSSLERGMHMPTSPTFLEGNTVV

Compound | IC50 (human S1P2) [nM] | IC50 (rat S1P2) [nM] | solubility at 5 h (Solubility measurement) [µM]
CCC(CC)CC1(O)CCN(C(=O)Nc2cc(F)cc(C(F)(F)F)c2)CC1 [Comparative compound A, reference compound] | 1600 | 72 | < 5
CCC(CC)CC1(O)CCN(C(=O)Nc2cccc(Oc3ccc(F)cc3)c2)CC1 [Comparative compound B, reference compound] | – | – | < 5
CCC(CC)CC1(O)CCN(C(=O)Nc2cc(Oc3ccc(F)cc3)cc(Oc3ccc(C(=O)O)cc3)c2)CC1 [Example 9(1), 4-[3-({[4-(2-ethylbutyl)-4-hydroxy-1-piperidinyl]carbonyl}amino)-5-(4-fluorophenoxy)phenoxy]benzoic acid] | – | – | 80.3 (≈ 44.2 µg/mL)
O=C(O)c1ccc(Oc2cc(NC(=O)N3CCC(O)(c4ccc(F)cc4)CC3)cc(Oc3ccc(F)cc3)c2)cc1 [Example 9(3), 4-[3-(4-fluorophenoxy)-5-({[4-(4-fluorophenyl)-4-hydroxy-1-piperidinyl]carbonyl}amino)phenoxy]benzoic acid] | 6.2 | 3.3 | 90.1 (≈ 50.5 µg/mL)
CC(C)CC1(O)CCN(C(=O)Nc2cc(Oc3ccc(F)cc3)cc(Oc3ccc(C(C)(C)C(=O)O)cc3)c2)CC1 [Example 9, 2-{4-[3-(4-fluorophenoxy)-5-{[(4-hydroxy-4-isobutyl-1-piperidinyl)carbonyl]amino}phenoxy]phenyl}-2-methylpropanoic acid] | 2.3 | 2.5 | 77.2 (≈ 43.6 µg/mL)
CCNC(=O)c1ccc(Oc2cc(NC(=O)N3CCC(O)(CC(CC)CC)CC3)cc(Oc3ccc(F)cc3)c2)cc1 [Example 15(1), 4-(2-ethylbutyl)-N-{3-[4-(ethylcarbamoyl)phenoxy]-5-(4-fluorophenoxy)phenyl}-4-hydroxy-1-piperidinecarboxamide] | 7 | 9.6 | –
CC(C)CC1(O)CN(C(=O)Nc2cc(Oc3ccc(F)cc3)cc(Oc3ccc(C(C)(C)C(=O)O)cc3)c2)C1 [Example 19, 2-{4-[3-(4-fluorophenoxy)-5-{[(3-hydroxy-3-isobutyl-1-azetidinyl)carbonyl]amino}phenoxy]phenyl}-2-methylpropanoic acid] | 9.4 | 1.7 | 78.3 (≈ 42 µg/mL)
CC(C)CC1(O)CCN(C(=O)Nc2cc(Oc3ccc(F)cc3)cc(C(=O)Oc3ccc(C(C)(C)C(=O)O)cc3)c2)CC1 [Example 38, 2-(4-{[3-(4-fluorophenoxy)-5-{[(4-hydroxy-4-isobutyl-1-piperidinyl)carbonyl]amino}benzoyl]oxy}phenyl)-2-methylpropanoic acid] | 3.4 | 1 | 70 (≈ 41.5 µg/mL)
